Data as given in ChEMBL document CHEMBL1145890, “Synthesis, characterization, and in vitro antitumor activity of osteotropic diam(m)ineplatinum(II) complexes bearing a N,N-bis(phosphonomethyl)glycine ligand” (J Med Chem, 2003).
pIC50: −log10 of the molar value.

System: CH1
Assay: Antiproliferative activity in human ovarian cancer cell line (CH1) using MTT assay
Type: functional, cell-based

| Sequence | pIC50 |
| --- | --- |
| OXALIPLATIN | 6.57 |
| CARBOPLATIN | 5.60 |
